# Measured values published in paper PMC5290327, “SC83288 is a clinical development candidate for the treatment of severe malaria” (Nature Communications, 2017).
# Experiments:
# Assay in all cases: KINOMEscan
# Type in all cases: binding
# Settings in all cases: read-out: Remaining enzyme activity
# ACVRL1 = target: T1, ACVRL1 (Homo sapiens, UniProt P37023)
# T1 construct: purchased Ambit (DiscoverX) KINOMEscan; Cerep
# How it was run: (§1)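 Immobilized ligand beads, biotin-blocked and washed in SeaBlock buffer with BSA, Tween 20 and DTT, are incubated with DNA-tagged kinase and 10 μM SC81458. Compound occupying the active site lowers bead-bound kinase, which is quantified by qPCR of the tag.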
# TNK1 = target: T2, TNK1 (Homo sapiens, UniProt Q13470)
# T2 construct: purchased Ambit (DiscoverX) KINOMEscan; Cerep
# How it was run: as §1
# ACVR2a = target: T3, ACVR2a (Homo sapiens, UniProt P27037)
# T3 construct: purchased Ambit (DiscoverX) KINOMEscan; Cerep
# How it was run: as §1
# CIT = target: T4, CIT (Homo sapiens, UniProt O14578)
# T4 construct: purchased Ambit (DiscoverX) KINOMEscan; Cerep
# How it was run: as §1
# AXL = target: T5, AXL (Homo sapiens, UniProt P30530)
# T5 construct: purchased Ambit (DiscoverX) KINOMEscan; Cerep
# How it was run: as §1
# NEK2 = target: T6, NEK2 (Homo sapiens, UniProt P51955)
# T6 construct: purchased Ambit (DiscoverX) KINOMEscan; Cerep
# How it was run: as §1
# MLK1 = target: T7, MLK1 (Homo sapiens, UniProt P80192)
# T7 construct: purchased Ambit (DiscoverX) KINOMEscan; Cerep
# How it was run: as §1
# PIM2 = target: T8, PIM2 (Homo sapiens, UniProt Q9P1W9)
# T8 construct: purchased Ambit (DiscoverX) KINOMEscan; Cerep
# How it was run: as §1
# MAP4K4 = target: T9, MAP4K4 (Homo sapiens, UniProt O95819)
# T9 construct: purchased Ambit (DiscoverX) KINOMEscan; Cerep
# How it was run: as §1
# HIPK4 = target: T10, HIPK4 (Homo sapiens, UniProt Q8NE63)
# T10 construct: purchased Ambit (DiscoverX) KINOMEscan; Cerep
# How it was run: as §1
# TEC = target: T11, TEC (Homo sapiens, UniProt P42680)
# T11 construct: purchased Ambit (DiscoverX) KINOMEscan; Cerep
# How it was run: as §1
# DDR2 = target: T12, DDR2 (Homo sapiens, UniProt Q16832)
# T12 construct: purchased Ambit (DiscoverX) KINOMEscan; Cerep
# How it was run: as §1
# TIE2 = target: T13, TIE2 (Homo sapiens, UniProt Q02763)
# T13 construct: purchased Ambit (DiscoverX) KINOMEscan; Cerep
# How it was run: as §1
# MELK = target: T14, MELK (Homo sapiens, UniProt Q14680)
# T14 construct: purchased Ambit (DiscoverX) KINOMEscan; Cerep
# How it was run: as §1
# AMPK-alpha2 = target: T15, AMPK-alpha2 (Homo sapiens, UniProt P54646)
# T15 construct: purchased Ambit (DiscoverX) KINOMEscan; Cerep
# How it was run: as §1
# DAPK3 = target: T16, DAPK3 (Homo sapiens, UniProt O43293)
# T16 construct: purchased Ambit (DiscoverX) KINOMEscan; Cerep
# How it was run: as §1
# CAMK1g = target: T17, CAMK1g (Homo sapiens, UniProt Q96NX5)
# T17 construct: purchased Ambit (DiscoverX) KINOMEscan; Cerep
# How it was run: as §1
# NDR1 = target: T18, NDR1 (Homo sapiens, UniProt Q15208)
# T18 construct: purchased Ambit (DiscoverX) KINOMEscan; Cerep
# How it was run: as §1
# HIPK2 = target: T19, HIPK2 (Homo sapiens, UniProt Q9H2X6)
# T19 construct: purchased Ambit (DiscoverX) KINOMEscan; Cerep
# How it was run: as §1
# ULK1 = target: T20, ULK1 (Homo sapiens, UniProt O75385)
# T20 construct: purchased Ambit (DiscoverX) KINOMEscan; Cerep
# How it was run: as §1
# LKB1 = target: T21, LKB1 (Homo sapiens, UniProt Q15831)
# T21 construct: purchased Ambit (DiscoverX) KINOMEscan; Cerep
# How it was run: as §1
# ROCK1 = target: T22, ROCK1 (Homo sapiens, UniProt Q13464)
# T22 construct: purchased Ambit (DiscoverX) KINOMEscan; Cerep
# How it was run: as §1
# TBK1 = target: T23, TBK1 (Homo sapiens, UniProt Q9UHD2)
# T23 construct: purchased Ambit (DiscoverX) KINOMEscan; Cerep
# How it was run: as §1
# TAK1 = target: T24, TAK1 (Homo sapiens, UniProt O43318)
# T24 construct: purchased Ambit (DiscoverX) KINOMEscan; Cerep
# How it was run: as §1
# TRKc = target: T25, TRKc (Homo sapiens, UniProt Q16288)
# T25 construct: purchased Ambit (DiscoverX) KINOMEscan; Cerep
# How it was run: as §1
# FGFR3 = target: T26, FGFR3 (Homo sapiens, UniProt P22607)
# T26 construct: purchased Ambit (DiscoverX) KINOMEscan; Cerep
# How it was run: as §1
# MYO3b = target: T27, MYO3b (Homo sapiens, UniProt Q8WXR4)
# T27 construct: purchased Ambit (DiscoverX) KINOMEscan; Cerep
# How it was run: as §1
# CTK = target: T28, CTK (Homo sapiens, UniProt P42679)
# T28 construct: purchased Ambit (DiscoverX) KINOMEscan; Cerep
# How it was run: as §1
# YANK3 = target: T29, YANK3 (Homo sapiens, UniProt Q86UX6)
# T29 construct: purchased Ambit (DiscoverX) KINOMEscan; Cerep
# How it was run: as §1
# NLK = target: T30, NLK (Homo sapiens, UniProt Q9UBE8)
# T30 construct: purchased Ambit (DiscoverX) KINOMEscan; Cerep
# How it was run: as §1
# DCAMKL2 = target: T31, DCAMKL2 (Homo sapiens, UniProt Q8N568)
# T31 construct: purchased Ambit (DiscoverX) KINOMEscan; Cerep
# How it was run: as §1
# PHKG2 = target: T32, PHKG2 (Homo sapiens, UniProt P15735)
# T32 construct: purchased Ambit (DiscoverX) KINOMEscan; Cerep
# How it was run: as §1
# FLT1 = target: T33, FLT1 (Homo sapiens, UniProt P17948)
# T33 construct: purchased Ambit (DiscoverX) KINOMEscan; Cerep
# How it was run: as §1
# MARK3 = target: T34, MARK3 (Homo sapiens, UniProt P27448)
# T34 construct: purchased Ambit (DiscoverX) KINOMEscan; Cerep
# How it was run: as §1
# EPHA1 = target: T35, EPHA1 (Homo sapiens, UniProt P21709)
# T35 construct: purchased Ambit (DiscoverX) KINOMEscan; Cerep
# How it was run: as §1
# T23 sequence (Q9UHD2 whole entry): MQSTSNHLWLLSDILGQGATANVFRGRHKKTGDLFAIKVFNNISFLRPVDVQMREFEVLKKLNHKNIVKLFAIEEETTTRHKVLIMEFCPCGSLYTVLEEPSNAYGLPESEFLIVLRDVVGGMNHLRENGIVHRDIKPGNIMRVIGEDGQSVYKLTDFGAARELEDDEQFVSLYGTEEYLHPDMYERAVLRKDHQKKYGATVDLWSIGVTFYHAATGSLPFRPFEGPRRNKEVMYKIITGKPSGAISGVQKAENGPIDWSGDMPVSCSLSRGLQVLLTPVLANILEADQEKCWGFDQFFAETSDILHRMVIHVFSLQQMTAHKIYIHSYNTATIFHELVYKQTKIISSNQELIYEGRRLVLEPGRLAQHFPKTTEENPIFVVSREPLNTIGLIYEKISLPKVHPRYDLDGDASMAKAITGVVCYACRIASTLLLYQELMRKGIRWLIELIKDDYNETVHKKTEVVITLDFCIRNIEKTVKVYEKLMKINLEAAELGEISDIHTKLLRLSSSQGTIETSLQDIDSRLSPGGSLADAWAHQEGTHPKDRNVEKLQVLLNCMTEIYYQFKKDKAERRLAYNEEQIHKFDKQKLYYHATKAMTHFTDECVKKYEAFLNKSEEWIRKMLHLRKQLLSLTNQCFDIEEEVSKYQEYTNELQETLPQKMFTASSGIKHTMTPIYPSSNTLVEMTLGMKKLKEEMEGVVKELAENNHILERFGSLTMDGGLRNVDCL
# T9 sequence (O95819 whole entry): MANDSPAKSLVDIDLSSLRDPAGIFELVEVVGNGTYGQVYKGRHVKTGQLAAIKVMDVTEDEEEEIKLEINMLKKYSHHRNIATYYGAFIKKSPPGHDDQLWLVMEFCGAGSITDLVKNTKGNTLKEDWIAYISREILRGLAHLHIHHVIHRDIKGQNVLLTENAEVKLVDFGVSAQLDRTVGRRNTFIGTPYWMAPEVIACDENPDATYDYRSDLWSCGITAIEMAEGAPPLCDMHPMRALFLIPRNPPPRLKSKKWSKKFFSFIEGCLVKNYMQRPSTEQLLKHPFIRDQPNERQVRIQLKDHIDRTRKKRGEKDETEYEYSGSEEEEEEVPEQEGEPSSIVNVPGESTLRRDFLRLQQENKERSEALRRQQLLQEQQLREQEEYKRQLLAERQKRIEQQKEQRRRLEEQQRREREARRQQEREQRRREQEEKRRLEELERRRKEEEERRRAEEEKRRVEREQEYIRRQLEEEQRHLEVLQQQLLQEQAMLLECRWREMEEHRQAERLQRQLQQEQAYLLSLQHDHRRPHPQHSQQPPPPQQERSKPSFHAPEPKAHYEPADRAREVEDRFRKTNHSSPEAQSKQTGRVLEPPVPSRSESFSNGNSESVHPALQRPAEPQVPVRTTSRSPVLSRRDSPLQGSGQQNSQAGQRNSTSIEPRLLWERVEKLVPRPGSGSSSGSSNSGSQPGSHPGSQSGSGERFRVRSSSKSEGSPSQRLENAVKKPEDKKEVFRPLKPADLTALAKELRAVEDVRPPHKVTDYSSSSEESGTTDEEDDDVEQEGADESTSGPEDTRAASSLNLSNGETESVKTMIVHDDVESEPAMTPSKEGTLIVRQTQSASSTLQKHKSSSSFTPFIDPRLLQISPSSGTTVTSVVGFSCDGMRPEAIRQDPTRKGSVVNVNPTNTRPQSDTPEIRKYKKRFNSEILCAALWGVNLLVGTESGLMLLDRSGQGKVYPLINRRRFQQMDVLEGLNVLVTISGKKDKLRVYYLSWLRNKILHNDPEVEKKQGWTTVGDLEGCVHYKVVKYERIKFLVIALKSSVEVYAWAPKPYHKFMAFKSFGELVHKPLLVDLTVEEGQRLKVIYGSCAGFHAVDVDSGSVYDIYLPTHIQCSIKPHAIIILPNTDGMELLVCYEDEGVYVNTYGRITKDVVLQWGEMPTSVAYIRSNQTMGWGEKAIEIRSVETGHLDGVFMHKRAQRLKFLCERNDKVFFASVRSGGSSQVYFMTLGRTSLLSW
# T21 sequence (Q15831 whole entry): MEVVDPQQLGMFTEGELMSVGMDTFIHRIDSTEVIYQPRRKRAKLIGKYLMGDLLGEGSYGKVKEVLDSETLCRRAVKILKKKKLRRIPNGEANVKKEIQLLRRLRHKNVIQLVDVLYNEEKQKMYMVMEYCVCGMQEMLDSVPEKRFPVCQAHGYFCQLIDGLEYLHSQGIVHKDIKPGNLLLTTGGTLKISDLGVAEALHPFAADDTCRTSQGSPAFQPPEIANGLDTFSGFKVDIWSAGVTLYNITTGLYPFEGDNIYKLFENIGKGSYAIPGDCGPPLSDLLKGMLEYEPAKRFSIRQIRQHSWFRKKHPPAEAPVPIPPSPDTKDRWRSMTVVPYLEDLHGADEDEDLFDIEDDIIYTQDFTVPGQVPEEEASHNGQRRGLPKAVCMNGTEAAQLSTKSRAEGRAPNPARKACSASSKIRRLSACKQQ
# T1 sequence (P37023 22-503): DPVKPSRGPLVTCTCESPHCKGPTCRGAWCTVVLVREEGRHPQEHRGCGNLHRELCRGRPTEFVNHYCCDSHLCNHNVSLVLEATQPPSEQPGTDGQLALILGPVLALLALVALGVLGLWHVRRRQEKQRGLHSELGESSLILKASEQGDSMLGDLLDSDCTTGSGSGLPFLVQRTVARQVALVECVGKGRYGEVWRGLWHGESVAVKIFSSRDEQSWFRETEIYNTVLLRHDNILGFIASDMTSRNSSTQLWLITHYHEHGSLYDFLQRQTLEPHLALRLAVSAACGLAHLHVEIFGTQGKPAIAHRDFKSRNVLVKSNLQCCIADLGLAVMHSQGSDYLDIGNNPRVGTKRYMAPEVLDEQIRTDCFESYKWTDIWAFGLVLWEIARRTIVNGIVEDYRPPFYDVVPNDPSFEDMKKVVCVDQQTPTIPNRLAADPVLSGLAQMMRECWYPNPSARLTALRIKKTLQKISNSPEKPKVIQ
# T2 sequence (Q13470 whole entry): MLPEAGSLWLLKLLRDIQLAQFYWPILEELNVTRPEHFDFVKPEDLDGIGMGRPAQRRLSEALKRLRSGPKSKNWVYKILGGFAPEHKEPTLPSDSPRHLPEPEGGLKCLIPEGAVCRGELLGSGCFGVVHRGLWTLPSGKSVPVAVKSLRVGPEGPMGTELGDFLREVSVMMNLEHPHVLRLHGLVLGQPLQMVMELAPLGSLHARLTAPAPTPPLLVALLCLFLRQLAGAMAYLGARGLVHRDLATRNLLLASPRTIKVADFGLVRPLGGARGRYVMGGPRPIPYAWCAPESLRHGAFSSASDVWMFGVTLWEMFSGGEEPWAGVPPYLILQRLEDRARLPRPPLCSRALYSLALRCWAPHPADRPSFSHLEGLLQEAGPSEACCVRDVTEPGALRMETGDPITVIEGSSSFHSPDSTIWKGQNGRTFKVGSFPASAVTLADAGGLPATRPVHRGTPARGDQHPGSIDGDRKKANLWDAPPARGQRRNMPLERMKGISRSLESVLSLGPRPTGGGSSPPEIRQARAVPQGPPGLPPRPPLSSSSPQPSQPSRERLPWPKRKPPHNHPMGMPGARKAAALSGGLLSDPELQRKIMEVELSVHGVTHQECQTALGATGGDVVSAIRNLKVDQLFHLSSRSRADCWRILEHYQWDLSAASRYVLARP
# T27 sequence (Q8WXR4 whole entry): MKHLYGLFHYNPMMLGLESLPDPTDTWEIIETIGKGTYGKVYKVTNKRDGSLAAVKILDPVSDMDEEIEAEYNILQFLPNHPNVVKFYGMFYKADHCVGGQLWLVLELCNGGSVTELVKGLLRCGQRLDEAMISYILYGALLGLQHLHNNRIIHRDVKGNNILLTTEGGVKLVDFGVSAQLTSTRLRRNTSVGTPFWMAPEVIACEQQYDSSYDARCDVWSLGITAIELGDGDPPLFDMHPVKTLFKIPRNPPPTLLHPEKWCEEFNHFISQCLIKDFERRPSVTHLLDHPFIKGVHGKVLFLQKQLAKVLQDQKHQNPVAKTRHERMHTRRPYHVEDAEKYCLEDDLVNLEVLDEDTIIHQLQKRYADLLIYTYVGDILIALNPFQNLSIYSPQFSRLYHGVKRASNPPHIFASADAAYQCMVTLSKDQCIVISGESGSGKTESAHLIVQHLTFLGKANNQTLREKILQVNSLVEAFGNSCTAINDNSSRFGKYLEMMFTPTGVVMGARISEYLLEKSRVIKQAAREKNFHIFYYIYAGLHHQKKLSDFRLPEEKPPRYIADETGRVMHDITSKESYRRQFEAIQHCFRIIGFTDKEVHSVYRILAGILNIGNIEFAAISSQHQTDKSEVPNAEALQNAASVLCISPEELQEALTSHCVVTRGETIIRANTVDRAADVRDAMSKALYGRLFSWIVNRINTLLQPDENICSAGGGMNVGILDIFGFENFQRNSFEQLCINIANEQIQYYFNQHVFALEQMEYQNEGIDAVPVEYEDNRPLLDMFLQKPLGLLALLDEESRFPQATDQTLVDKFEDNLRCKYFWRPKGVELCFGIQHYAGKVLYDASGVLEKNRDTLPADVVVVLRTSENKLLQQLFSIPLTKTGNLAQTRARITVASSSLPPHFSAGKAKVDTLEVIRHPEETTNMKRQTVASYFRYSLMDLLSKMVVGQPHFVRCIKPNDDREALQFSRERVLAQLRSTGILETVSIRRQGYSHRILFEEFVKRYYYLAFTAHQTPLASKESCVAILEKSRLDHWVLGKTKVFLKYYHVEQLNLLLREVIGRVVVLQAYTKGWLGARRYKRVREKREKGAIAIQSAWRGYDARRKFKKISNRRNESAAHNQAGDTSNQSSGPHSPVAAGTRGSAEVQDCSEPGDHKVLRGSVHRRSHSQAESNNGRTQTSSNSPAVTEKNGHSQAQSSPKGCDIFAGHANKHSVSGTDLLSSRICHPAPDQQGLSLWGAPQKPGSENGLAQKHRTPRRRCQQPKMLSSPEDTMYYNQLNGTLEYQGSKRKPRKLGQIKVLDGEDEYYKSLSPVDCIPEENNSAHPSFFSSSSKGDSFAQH
smiles,measurement,setting,value
"CCCCN1CCN(C(=N)c2cccc(NC(=O)Nc3ccc(S(=O)(=O)NCc4ccc(S(N)(=O)=O)cc4)cc3)c2)CC1 [SC81458, 4-(3-(3-((4-butylpiperazin-1-yl)(imino)methyl)phenyl)ureido)-N-(4-sulfamoylbenzyl) benzenesulfonamide]",remaining binding at 10 µM,ACVRL1,72%
same,remaining binding at 10 µM,TNK1,70%
same,remaining binding at 10 µM,ACVR2a,100%
same,remaining binding at 10 µM,CIT,94%
same,remaining binding at 10 µM,AXL,100%
same,remaining binding at 10 µM,NEK2,96%
same,remaining binding at 10 µM,MLK1,64%
same,remaining binding at 10 µM,PIM2,87%
same,remaining binding at 10 µM,MAP4K4,100%
same,remaining binding at 10 µM,HIPK4,100%
same,remaining binding at 10 µM,TEC,90%
same,remaining binding at 10 µM,DDR2,100%
same,remaining binding at 10 µM,TIE2,100%
same,remaining binding at 10 µM,MELK,100%
same,remaining binding at 10 µM,AMPK-alpha2,96%
same,remaining binding at 10 µM,DAPK3,100%
same,remaining binding at 10 µM,CAMK1g,98%
same,remaining binding at 10 µM,NDR1,100%
same,remaining binding at 10 µM,HIPK2,100%
same,remaining binding at 10 µM,ULK1,100%
same,remaining binding at 10 µM,LKB1,88%
same,remaining binding at 10 µM,ROCK1,100%
same,remaining binding at 10 µM,TBK1,100%
same,remaining binding at 10 µM,TAK1,100%
same,remaining binding at 10 µM,TRKc,100%
same,remaining binding at 10 µM,FGFR3,100%
same,remaining binding at 10 µM,MYO3b,100%
same,remaining binding at 10 µM,CTK,100%
same,remaining binding at 10 µM,YANK3,97%
same,remaining binding at 10 µM,NLK,95%
same,remaining binding at 10 µM,DCAMKL2,100%
same,remaining binding at 10 µM,PHKG2,100%
same,remaining binding at 10 µM,FLT1,91%
same,remaining binding at 10 µM,MARK3,99%
same,remaining binding at 10 µM,EPHA1,91%
